Tested on: mice
Assay: Conditioned place preference (CPP) test of addictive potential
Type: in vivo, mouse
Conditions: 5 mg/kg, three conditioning days
Source text: The conditioned place preference (CPP) test was used to compare morphine and LMK235 post-drug behaviors to baseline. Time spent in their assigned drug administration chamber post-drug was divided by the time spent in the chamber during the baseline recording. A score of 1 meant that there was no difference in time spent in either chamber after dosing. A score greater than 1 meant more time was spent in the assigned drug chamber, and a score less than 1 meant less time was spent in the assigned drug chamber.
Mice were assigned either vehicle, morphine (5 mg/kg) or LMK235 (5 mg/kg) and assigned cubicle designation for groups (n=3) as follows: Vehicle-Blank, Vehicle-Striped, Morphine-Blank, Morphine-Striped, LMK-Blank, LMK-Striped. For baseline collection, mice were placed in the middle of the box and allowed access to both chambers for 15 minutes. Time spent in each chamber was recorded. For the subsequent three test days, mice were injected with their assigned drug and placed in their assigned chamber, without access to the other chamber, for 30 minutes. On the final test day, mice were placed in the middle of the box and allowed access to both chambers for 15 minutes. Time spent in each chamber was recorded.

SMILES: CN1CC[C@]23c4c5ccc(O)c4O[C@H]2[C@@H](O)C=C[C@H]3[C@H]1C5 [morphine]
- time in assigned drug chamber post-drug versus baseline (addictive potential): spent more time in their assigned drug chamber
